Earlier results in PubChem BioAssay AID1259409 (Chemical Carcinogenesis Research Information System (CCRIS), 2018).

Tested on: rodent chemically induced tumor inhibition, incidence and multiplicity
Experiment: CCRIS tumor inhibitor studies
Settings: Route [Inhibitor]: ORAL, Species: RAT, Promoter: NONE USED

With `CC1=C(/C=C/C(C)=C/C=C/C(C)=C/C=C2C(=O)CC(C)(C)CC2=O)C(C)(C)CCC1` as the compound, how does the “tumour outcome (control, treated, inhibition, significance)” value (Carcinogen: L-AZASERINE, 115-02-6, Dose [Inhibitor]: 1 MMOL/KG DIET DAILY FOR 365 D STARTING 1 WK AFTER COMPLETION OF CARCINOGEN TREATMENT (STUDY DURATION: 66 WK), Strain/Sex: WISTAR-LEWIS/FEMALE, Target Tissue: Type of Lesion: PANCREAS: ADENOMA, Dose [Carcinogen]: 10 MG/KG BW 1/WK FOR 15 WK) read?
Its value is 50%, 33%, 34%, not significant.

What about the “tumour outcome (control, treated, inhibition, significance)” value (Carcinogen: L-AZASERINE, 115-02-6, Dose [Inhibitor]: 1 MMOL/KG DIET DAILY FOR 365 D STARTING 1 WK AFTER COMPLETION OF CARCINOGEN TREATMENT (STUDY DURATION: 66 WK), Strain/Sex: WISTAR-LEWIS/FEMALE, Target Tissue: Type of Lesion: PANCREAS: CARCINOMA IN SITU, Dose [Carcinogen]: 10 MG/KG BW 1/WK FOR 15 WK) of the same compound?
Its value is 8%, 21%, -163%, not calculated.

And the “tumour outcome (control, treated, inhibition, significance)” value (Carcinogen: L-AZASERINE, 115-02-6, Dose [Inhibitor]: 1 MMOL/KG DIET DAILY FOR 365 D STARTING 1 WK AFTER COMPLETION OF CARCINOGEN TREATMENT (STUDY DURATION: 66 WK), Strain/Sex: WISTAR-LEWIS/FEMALE, Target Tissue: Type of Lesion: PANCREAS: CARCINOMA, Dose [Carcinogen]: 10 MG/KG BW 1/WK FOR 15 WK)?
Its value is 13%, 4%, 69%, not significant.

And the “tumour outcome (control, treated, inhibition, significance)” value (Carcinogen: L-AZASERINE, 115-02-6, Dose [Inhibitor]: 1 MMOL/KG DIET DAILY FOR 365 D STARTING 1 WK AFTER COMPLETION OF CARCINOGEN TREATMENT (STUDY DURATION: 66 WK), Strain/Sex: WISTAR-LEWIS/FEMALE, Target Tissue: Type of Lesion: PANCREAS: NEOPLASM, Dose [Carcinogen]: 10 MG/KG BW 1/WK FOR 15 WK)?
Its value is 71%, 58%, 18%, not significant.

What about the “tumour outcome (control, treated, inhibition, significance)” value (Carcinogen: L-AZASERINE, 115-02-6, Dose [Inhibitor]: 1 MMOL/KG DIET DAILY FOR 365 D STARTING 1 WK AFTER COMPLETION OF CARCINOGEN TREATMENT (STUDY DURATION: 66 WK), Strain/Sex: WISTAR-LEWIS/MALE, Target Tissue: Type of Lesion: PANCREAS: ADENOMA, Dose [Carcinogen]: 10 MG/KG BW 1/WK FOR 15 WK) of the same compound?
Its value is 25%, 12%, 52%, not significant.

And the “tumour outcome (control, treated, inhibition, significance)” value (Carcinogen: L-AZASERINE, 115-02-6, Dose [Inhibitor]: 1 MMOL/KG DIET DAILY FOR 365 D STARTING 1 WK AFTER COMPLETION OF CARCINOGEN TREATMENT (STUDY DURATION: 66 WK), Strain/Sex: WISTAR-LEWIS/MALE, Target Tissue: Type of Lesion: PANCREAS: CARCINOMA IN SITU, Dose [Carcinogen]: 10 MG/KG BW 1/WK FOR 15 WK)?
Its value is 29%, 56%, -93%, not significant.

And the “tumour outcome (control, treated, inhibition, significance)” value (Carcinogen: L-AZASERINE, 115-02-6, Dose [Inhibitor]: 1 MMOL/KG DIET DAILY FOR 365 D STARTING 1 WK AFTER COMPLETION OF CARCINOGEN TREATMENT (STUDY DURATION: 66 WK), Strain/Sex: WISTAR-LEWIS/MALE, Target Tissue: Type of Lesion: PANCREAS: CARCINOMA, Dose [Carcinogen]: 10 MG/KG BW 1/WK FOR 15 WK)?
The value was 46%, 16%, 65%, p<0.05.

And the “tumour outcome (control, treated, inhibition, significance)” value (Carcinogen: L-AZASERINE, 115-02-6, Dose [Inhibitor]: 1 MMOL/KG DIET DAILY FOR 365 D STARTING 1 WK AFTER COMPLETION OF CARCINOGEN TREATMENT (STUDY DURATION: 66 WK), Strain/Sex: WISTAR-LEWIS/MALE, Target Tissue: Type of Lesion: PANCREAS: NEOPLASM, Dose [Carcinogen]: 10 MG/KG BW 1/WK FOR 15 WK)?
The value was 100%, 84%, 16%, not significant.

And the “tumour outcome (control, treated, inhibition, significance)” value (Carcinogen: L-AZASERINE, 115-02-6, Dose [Inhibitor]: 2 MMOL/KG DIET DAILY FOR 330 D STARTING 1 WK AFTER COMPLETION OF CARCINOGEN TREATMENT (STUDY DURATION: 66 WK), Strain/Sex: WISTAR-LEWIS/FEMALE, Target Tissue: Type of Lesion: PANCREAS: ADENOMA, Dose [Carcinogen]: 10 MG/KG BW 1/WK FOR 15 WK)?
Its value is 50%, 33%, 34%, not significant.

What about the “tumour outcome (control, treated, inhibition, significance)” value (Carcinogen: L-AZASERINE, 115-02-6, Dose [Inhibitor]: 2 MMOL/KG DIET DAILY FOR 330 D STARTING 1 WK AFTER COMPLETION OF CARCINOGEN TREATMENT (STUDY DURATION: 66 WK), Strain/Sex: WISTAR-LEWIS/FEMALE, Target Tissue: Type of Lesion: PANCREAS: CARCINOMA IN SITU, Dose [Carcinogen]: 10 MG/KG BW 1/WK FOR 15 WK) of the same compound?
The value was 8%, 17%, -113%, not calculated.

And the “tumour outcome (control, treated, inhibition, significance)” value (Carcinogen: L-AZASERINE, 115-02-6, Dose [Inhibitor]: 2 MMOL/KG DIET DAILY FOR 330 D STARTING 1 WK AFTER COMPLETION OF CARCINOGEN TREATMENT (STUDY DURATION: 66 WK), Strain/Sex: WISTAR-LEWIS/FEMALE, Target Tissue: Type of Lesion: PANCREAS: CARCINOMA, Dose [Carcinogen]: 10 MG/KG BW 1/WK FOR 15 WK)?
The value was 13%, 0%, 100%, not significant.

What about the “tumour outcome (control, treated, inhibition, significance)” value (Carcinogen: L-AZASERINE, 115-02-6, Dose [Inhibitor]: 2 MMOL/KG DIET DAILY FOR 330 D STARTING 1 WK AFTER COMPLETION OF CARCINOGEN TREATMENT (STUDY DURATION: 66 WK), Strain/Sex: WISTAR-LEWIS/FEMALE, Target Tissue: Type of Lesion: PANCREAS: NEOPLASM, Dose [Carcinogen]: 10 MG/KG BW 1/WK FOR 15 WK) of the same compound?
Its value is 71%, 50%, 30%, p 0.14.

What about the “tumour outcome (control, treated, inhibition, significance)” value (Carcinogen: L-AZASERINE, 115-02-6, Dose [Inhibitor]: 2 MMOL/KG DIET DAILY FOR 330 D STARTING 1 WK AFTER COMPLETION OF CARCINOGEN TREATMENT (STUDY DURATION: 66 WK), Strain/Sex: WISTAR-LEWIS/MALE, Target Tissue: Type of Lesion: PANCREAS: ADENOMA, Dose [Carcinogen]: 10 MG/KG BW 1/WK FOR 15 WK) of the same compound?
Its value is 25%, 40%, -60%, not significant.

What about the “tumour outcome (control, treated, inhibition, significance)” value (Carcinogen: L-AZASERINE, 115-02-6, Dose [Inhibitor]: 2 MMOL/KG DIET DAILY FOR 330 D STARTING 1 WK AFTER COMPLETION OF CARCINOGEN TREATMENT (STUDY DURATION: 66 WK), Strain/Sex: WISTAR-LEWIS/MALE, Target Tissue: Type of Lesion: PANCREAS: CARCINOMA IN SITU, Dose [Carcinogen]: 10 MG/KG BW 1/WK FOR 15 WK) of the same compound?
Its value is 29%, 44%, -52%, not significant.

What about the “tumour outcome (control, treated, inhibition, significance)” value (Carcinogen: L-AZASERINE, 115-02-6, Dose [Inhibitor]: 2 MMOL/KG DIET DAILY FOR 330 D STARTING 1 WK AFTER COMPLETION OF CARCINOGEN TREATMENT (STUDY DURATION: 66 WK), Strain/Sex: WISTAR-LEWIS/MALE, Target Tissue: Type of Lesion: PANCREAS: CARCINOMA, Dose [Carcinogen]: 10 MG/KG BW 1/WK FOR 15 WK) of the same compound?
Its value is 46%, 0%, 100%, p<0.05.

And the “tumour outcome (control, treated, inhibition, significance)” value (Carcinogen: L-AZASERINE, 115-02-6, Dose [Inhibitor]: 2 MMOL/KG DIET DAILY FOR 330 D STARTING 1 WK AFTER COMPLETION OF CARCINOGEN TREATMENT (STUDY DURATION: 66 WK), Strain/Sex: WISTAR-LEWIS/MALE, Target Tissue: Type of Lesion: PANCREAS: NEOPLASM, Dose [Carcinogen]: 10 MG/KG BW 1/WK FOR 15 WK)?
Its value is 100%, 84%, 16%, not significant.

What about the “tumour outcome (control, treated, inhibition, significance)” value (Carcinogen: N-METHYL-N-NITROSOUREA, 684-93-5, Dose [Inhibitor]: 406 MG/KG DIET DAILY FOR 24 WK STARTING 5 D AFTER LAST CARCINOGEN DOSE (STUDY DURATION: 32 WK), Strain/Sex: F344/MALE, Target Tissue: Type of Lesion: COLON: SARCOMA, Dose [Carcinogen]: 0.5 MG 2/WK FOR 8 WK) of the same compound?
The value was 5/40 (13%), 3/40 (8%), 38%, not calculated.

What about the “tumour outcome (control, treated, inhibition, significance)” value (Carcinogen: N-METHYL-N-NITROSOUREA, 684-93-5, Dose [Inhibitor]: 406 MG/KG DIET DAILY FOR 24 WK STARTING 5 D AFTER LAST CARCINOGEN DOSE (STUDY DURATION: 32 WK), Strain/Sex: F344/MALE, Target Tissue: Type of Lesion: COLON: TUMOR, Dose [Carcinogen]: 0.5 MG 2/WK FOR 8 WK) of the same compound?
Its value is 60%, 75%, -25%, not significant.

What about the “tumour outcome (control, treated, inhibition, significance)” value (Carcinogen: N-METHYL-N-NITROSOUREA, 684-93-5, Dose [Inhibitor]: 406 MG/KG DIET DAILY FOR 38 WK STARTING 5 D AFTER LAST CARCINOGEN DOSE (STUDY DURATION: 44 WK), Strain/Sex: F344/MALE, Target Tissue: Type of Lesion: COLON: TUMOR, Dose [Carcinogen]: 0.5 MG 2/WK FOR 6 WK) of the same compound?
Its value is 62%, 49%, 21%, not significant.

What about the “tumour outcome (control, treated, inhibition, significance)” value (Carcinogen: N-METHYL-N-NITROSOUREA, 684-93-5, Dose [Inhibitor]: 406 MG/KG DIET DAILY FOR 48 WK STARTING 5 D AFTER LAST CARCINOGEN DOSE (STUDY DURATION: 52 WK), Strain/Sex: F344/MALE, Target Tissue: Type of Lesion: COLON: TUMOR, Dose [Carcinogen]: 0.5 MG 2/WK FOR 4 WK) of the same compound?
The value was 31%, 35%, -13%, not significant.
